# Counter-ions that a name gives are not always drawn.
# Key:
# Type in all cases: cell-based
# IL-2 production = test: Inhibition of IL-2 production in PHA-activated Jurkat cells; conditions: Homo sapiens, PHA 2.5 μg/mL, 20 hours
# In short: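 Jurkat cells (0.5 million/well, 1% FBS) were preincubated with compound for 10 min, then stimulated with PHA (2.5 μg/mL final) for 20 h at 37 °C. Supernatant IL-2 was measured by ELISA. IC50 is the concentration giving 50% inhibition of maximal stimulated IL-2 relative to a non-stimulated control.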
# IL-2 = test: Cytokine inhibition in PHA-stimulated primary human PBMCs: IL-2; conditions: PBMCs stimulated with PHA; for IC50: Homo sapiens, PBMC, ELISA
# Procedure: (§1) Cytokine production was measured using commercially available human ELISA assay kits (from Cell Science, Inc.) following the manufacturers instructions.
# IL-4 = test: Cytokine inhibition in PHA-stimulated primary human PBMCs: IL-4; conditions: PBMCs stimulated with PHA; for IC50: Homo sapiens, PBMC, ELISA
# Procedure: as §1
# IL-5 = test: Cytokine inhibition in PHA-stimulated primary human PBMCs: IL-5; conditions: PBMCs stimulated with PHA; for IC50: Homo sapiens, PBMC, ELISA
# Procedure: as §1
# IL-10 = test: Cytokine inhibition in PHA-stimulated primary human PBMCs: IL-10; conditions: PBMC, PBMCs stimulated with PHA, ELISA
# Procedure: as §1
# IL-13 = test: Cytokine inhibition in PHA-stimulated primary human PBMCs: IL-13; conditions: PBMCs stimulated with PHA; for IC50: Homo sapiens, PBMC, ELISA
# Procedure: as §1
# GM-CSF = test: Cytokine inhibition in PHA-stimulated primary human PBMCs: GM-CSF; conditions: PBMCs stimulated with PHA; for IC50: Homo sapiens, PBMC, ELISA
# Procedure: as §1
# INF-γ = test: Cytokine inhibition in PHA-stimulated primary human PBMCs: INF-γ; conditions: PBMCs stimulated with PHA; for IC50: Homo sapiens, PBMC, ELISA
# Procedure: as §1
# TNF-α = test: Cytokine inhibition in PHA-stimulated primary human PBMCs: TNF-α; conditions: PBMCs stimulated with PHA; for IC50: Homo sapiens, PBMC, ELISA
# Procedure: as §1
smiles,measurement,setting,value
"COc1ccc2c(c1)nc(C(F)(F)F)n2-c1ccc(NC(=O)c2c(F)ccc(F)c2F)cc1 [Compound 1, 2,3,6-Trifluoro-N-[4-(2-trifluoromethyl-5-methoxy-benzoimidazol-1-yl)-phenyl]-benzamide]",IC50,IL-2 production; bins given in nM,< 100 nM
same,IC50,IL-2,0.029 µM
same,IC50,IL-4,0.651 µM
same,IC50,IL-5,0.026 µM
same,IC50,IL-10,> 1 µM
same,IC50,IL-13,0.073 µM
same,IC50,GM-CSF,0.788 µM
same,IC50,INF-γ,0.095 µM
same,IC50,TNF-α,0.424 µM
"COc1ccc2c(c1)nc(C(F)(F)F)n2-c1ccc(NC(=O)c2ccc3c(c2)OCO3)cc1 [Compound 75, Benzo[1,3]dioxole-5-carboxylic acid {N-[4-(2-trifluoromethyl-5-methoxy-benzoimidazol-1-yl)-phenyl]} amide]",IC50,IL-2 production; bins given in nM,100 to 500 nM
same,Inhibition of IL-2 (in words),IL-2,potent inhibitors
same,Inhibition of IL-4 (in words),IL-4,potent inhibitors
same,Inhibition of IL-5 (in words),IL-5,potent inhibitors
same,Inhibition of IL-13 (in words),IL-13,potent inhibitors
same,Inhibition of GM-CSF (in words),GM-CSF,potent inhibitors
same,Inhibition of INF-γ (in words),INF-γ,potent inhibitors
same,Inhibition of TNF-α (in words),TNF-α,potent inhibitors
"COc1ccc2c(c1)nc(C(F)(F)F)n2-c1ccc(NC(=O)c2cc(C(F)(F)F)cc(C(F)(F)F)c2)cc1 [Compound 129, 3,5-Di-(trifluoromethyl)-N-[4-(2-trifluoromethyl-5-methoxy-benzoimidazol-1-yl)-phenyl]-benzamide]",IC50,IL-2 production; bins given with μM limit,> 1000 nM
"COc1ccc2c(c1)nc(C(F)(F)F)n2-c1ccc(NC(=O)c2c(Cl)cc(Cl)cc2Cl)cc1 [Compound 63, 2,4,6-Trichloro-N-[4-(2-trifluoromethyl-5-methoxy-benzoimidazol-1-yl)-phenyl]-benzamide]",IC50,IL-2 production; bins given in nM,100 to 500 nM
"O=C(Nc1ccc(-n2c(Cl)nc3ccccc32)cc1)c1cccc(F)c1F [Compound 23, 2,3-Difluoro-N-[4-(2-chloro-benzoimidazol-1-yl)-phenyl]-benzamide]",IC50,IL-2 production; bins given in nM,100 to 500 nM
"COc1ccc2c(c1)nc(C(F)(F)F)n2-c1ccc(NC(=O)c2ccc(C(F)(F)F)cc2)cc1 [Compound 80, 4-Trifluoromethyl-N-[4-(2-trifluoromethyl-5-methoxy-benzoimidazol-1-yl)-phenyl]-benzamide]",IC50,IL-2 production; bins given in nM,100 to 500 nM
"Cc1ccccc1C(=O)Nc1ccc(-c2c(C(F)(F)F)cc3n2CCCC3)cc1 [Compound 18, 2-Methyl-N-[4-(2-trifluoromethyl-5,6,7,8-tetrahydroindolizin-3-yl)-phenyl]-benzamide]",IC50,IL-2 production; bins given in nM,100 to 500 nM
"CCc1ccc(C(=O)Nc2ccc(-n3c(C(F)(F)F)nc4cc(OC)ccc43)cc2)cc1 [Compound 79, 4-Ethyl-N-[4-(2-trifluoromethyl-5-methoxy-benzoimidazol-1-yl)-phenyl]-benzamide]",IC50,IL-2 production; bins given in nM,100 to 500 nM
"COc1ccc2c(c1)nc(C(F)(F)F)n2-c1ccc(NC(=O)COCc2ccccc2)cc1 [Compound 123, 2-Benzyloxy-N-[4-(2-trifluoromethyl-5-methoxy-benzoimidazol-1-yl)-phenyl]-acetamide]",IC50,IL-2 production; bins given with μM limit,> 1000 nM
"COc1ccc2c(c1)nc(C(F)(F)F)n2-c1ccc(NC(=O)c2cc(C(F)(F)F)ccc2C(F)(F)F)cc1 [Compound 127, 2,5-Di-(trifluoromethyl)-N-[4-(2-trifluoromethyl-5-methoxy-benzoimidazol-1-yl)-phenyl]-benzamide]",IC50,IL-2 production; bins given with μM limit,> 1000 nM
"COc1ccc2c(c1)nc(C(F)(F)F)n2-c1ccc(NCc2c(F)cccc2F)cc1 [Compound 135, 2,6-Difluoro-N-[4-(2-trifluoromethyl-5-methoxy-benzoimidazol-1-yl)-phenyl]-benzylamine, HCl salt]",IC50,IL-2 production; bins given in nM,< 100 nM
same,IC50,IL-2,0.003 µM
same,IC50,IL-4,0.101 µM
same,IC50,IL-5,0.013 µM
same,IC50,IL-10,0.439 µM
same,IC50,IL-13,0.025 µM
same,IC50,GM-CSF,0.099 µM
same,IC50,INF-γ,0.029 µM
same,IC50,TNF-α,0.047 µM
"CCCCCCC(=O)Nc1ccc(-n2c(C(F)(F)F)nc3cc(OC)ccc32)cc1 [Compound 88, N-[4-(2-trifluoromethyl-5-methoxy-benzoimidazol-1-yl)-phenyl]-heptanoic acid amide]",IC50,IL-2 production; bins given in nM,100 to 500 nM
"COc1ccc2c(c1)nc(C(F)(F)F)n2-c1ccc(NC(=O)c2ccncc2)cc1 [Compound 114, N-[4-(2-trifluoromethyl-5-methoxy-benzoimidazol-1-yl)-phenyl]-isonicotinamide]",IC50,IL-2 production; bins given in nM,< 100 nM
